Measured values from paper PMC9851200, “Multiparameter phenotypic screening for endogenous TFEB and TFE3 translocation identifies novel chemical series modulating lysosome function” (Autophagy, 2022).
Like-named read-outs stand apart in the source and are kept apart here.

Experiments:
SH-SY5Y cells [1] = test system: SH-SY5Y cells; also: reference of the scale not given here
SH-SY5Y cells [2] = assay: AK (adenylate kinase) release ToxiLight cytotoxicity assay; settings: PKIS2 primary screening; also: reference of the scale not given here
endogenous TFEB = assay: TFEB nuclear translocation, immunocytochemistry high-content imaging; assay type: cell-based; settings: PKIS2 primary screening
endogenous TFE3 = assay: TFE3 nuclear translocation, immunocytochemistry high-content imaging; assay type: cell-based; settings: PKIS2 primary screening
SH-SY5Y cells [3] = assay: Nuclear count from microscopy images (cellular growth and toxicity); settings: PKIS2 primary screening; also: reference of the scale not given here
[4] = PKIS2 primary screening, DQ Red BSA intensity
[5] = PKIS2 primary screening, DQ Red BSA spot count

SMILES	DQ Intensity (SH-SY5Y cells [1]; [4])	DQ Spot (SH-SY5Y cells [1]; [5])	AK (SH-SY5Y cells [2])	TFEB % (endogenous TFEB) [%]	TFE3 % (endogenous TFE3) [%]	Nuclear Count (SH-SY5Y cells [3])	DQ Intensity (SH-SY5Y cells [1]; PKIS2 primary screening)	DQ Spot (SH-SY5Y cells [1]; PKIS2 primary screening)	DQ Intensity (SH-SY5Y cells [1])	DQ Spot (SH-SY5Y cells [1])
CN1C(=O)C(Nc2cc(Cl)c(O)c(Cl)c2)=C(c2ccc(Cl)cc2)C1=O [UNC10225212A]	96.22	97.02	103.32	3.71	7.81	107.72				
COc1nccc(-c2c(-c3ccc(F)cc3)ncn2CCCN2CCOCC2)n1 [UNC10225213A]			78.43	5.79	16.14	107.77	119.56	105.70		
Cc1occc1-c1nc(N)c(OC[C@@H](N)Cc2c[nH]c3ccccc23)cc1-c1cc2c(C)n[nH]c2cn1 [UNC10225217A]			91.49	6.02	15.99	82.67	96.09	101.21		
Fc1cc(Cl)ccc1Nc1ccnc2cc(-c3ccc(CN4CCCCC4)o3)ccc12 [UNC10225220A]	113.72	129.26	82.41	3.77	18.00	76.92				
Cc1ccc2c(-c3ccnc(Nc4ccc(C(F)(F)F)cc4)n3)cnn2n1 [UNC10225224A]			79.85	10.89	15.88	89.44	85.12	93.95		
Cc1c(Cn2c(C)c(C)n3c(=O)cc(N4CCOCC4)nc23)cccc1C(F)(F)F [UNC10225225A]			106.72	3.43	8.46	111.32	84.00	96.71		
CN(C)CCOc1ccc(-c2cc(-c3c[nH]nc3-c3ccccn3)ccn2)cc1 [UNC10225226A]	136.49	114.20	93.65	11.71	7.10	49.06				
Cc1ccc(C)c(NC(=O)Nc2ccc(C)c(-c3ccc(C(=O)Nc4ccncc4)cc3)c2)c1 [UNC10225228A]			74.48	7.17	10.54	105.64	84.26	79.30		
COCCNC(=O)c1ccc(-c2cc(C(=O)NC3CC3)cc(F)c2C)cc1 [UNC10225229A]			73.51	15.26	7.62	111.58	100.76	101.89		
O=C(c1ccc(-c2cc(-c3c[nH]nc3-c3ccccn3)ccn2)cc1)N1CCCC1 [UNC10225230A]	81.19	99.92	75.56	9.58	11.53	86.33				
O=c1cc(N2CCOCC2)nc2n(Cc3ccccc3F)ccn12 [UNC10225231A]			121.63	4.37	8.12	97.25	110.36	111.39		
O=C(Nc1cccc(-c2nn3ncccc3c2-c2ccnc(Nc3ccccc3)n2)c1)c1c(F)cccc1F [UNC10225232A]			143.10	3.87	11.89	127.09	89.13	101.26		
COc1cc2nccc(Nc3ccc(OCc4ccc(NC(C)=O)cc4)cc3)c2cc1OC.Cl [UNC10225233A]	120.40	99.45	100.23	5.84	18.79	125.55				
C[C@@H](Oc1cc(-n2cnc3cc(-c4ccnc(NCCS(C)(=O)=O)c4)ccc32)sc1C(N)=O)c1ccccc1Cl [UNC10225234A]			97.61	11.46	12.54	68.66	121.28	93.41		
FC(F)(F)c1ccc(-c2cc(-c3c[nH]nc3-c3ccccn3)ccn2)cc1 [UNC10225241A]	101.49	108.48	109.99	3.57	6.11	106.44				
Cc1ccccc1-c1cc(-c2c[nH]nc2-c2ccccn2)ccn1 [UNC10225243A]	62.92	82.05	94.72	4.36	14.74	90.96				
CC(=O)c1c(-c2ccncc2)[nH]c(-c2ccncc2)c1C [UNC10225248A]			107.07	5.93	12.82	71.54	75.03	97.66		
Fc1ccc(-c2nn3c(OCC(F)(F)F)cccc3c2-c2ccncc2)cc1 [UNC10225249A]	115.73	116.42	70.84	6.54	7.21	84.48				
COc1cc2c(Nc3ccc(NC(=O)c4ccccc4)cc3)ncnc2cc1OCCCN1CCOCC1 [UNC10225250A]			83.23	4.27	6.21	140.08			81.48	82.98
Cl.c1ccc(-c2n[nH]cc2-c2ccnc(-c3ccc(CN4CCOCC4)cc3)c2)nc1 [UNC10225251A]	80.00	92.60	76.02	7.11	7.21	93.63				
Cc1ccccc1CC(=O)N1CCc2cc(-c3cn(C)c4ncnc(N)c34)ccc21 [UNC10225254A]			77.66	10.80	19.37	109.34	93.20	89.69		
CN(C)CCN(C)C(=O)c1cc(-c2ccncc2)c(-c2ccc(Cl)c(O)c2)o1.Cl.Cl [UNC10225256A]			88.55	10.97	22.07	130.04	171.47	68.22		
O=C(O)C(F)(F)F.O=c1[nH]ccc2nc(N[C@@H]3CCNC3)nc(Nc3cc(Cl)cc(Cl)c3)c12 [UNC10225257A]			117.20	7.01	8.28	111.57	65.99	83.26		
CC(C)N1CCC(n2cnc(-c3ccc(F)cc3)c2-c2ccnc(N)n2)CC1 [UNC10225258A]			107.69	5.04	12.02	83.47	110.79	99.41		
NC(=O)c1sc(-n2cnc3ccccc32)cc1OCc1ccccc1F [UNC10225260A]			77.77	10.02	15.10	92.38	138.58	126.89		
COc1cc2ncnc(Nc3ccc(OCc4ccccc4Br)c(Cl)c3)c2cc1OC.Cl [UNC10225261A]	96.30	117.72	120.37	4.00	8.49	123.73				
C[C@@H](Oc1cc(-n2cnc3cc(-c4ccncc4)ccc32)sc1C(N)=O)c1ccccc1Cl [UNC10225262A]			125.08	9.74	14.34	39.15	208.10	109.28		
